Measured values reported in patent EP0949270A1, “Synthetic peptides containing citrulline recognized by rheumatoid arthritis sera as tools for diagnosis and treatment” (INNOGENETICS N.V., priority 1998, dated 1999).
Ends that are not written are not given here.

Experiments:
[1] = test system: antifilaggrin antibodies in human sera; test: Line Immuno Assay (LIA): reactivity of streptavidin-complexed synthetic peptides with human sera; format: binding; settings: for LIA signals: 26 human RA sera (Fig. 3), peptides applied at 400 µg/ml, citrulline-containing peptides versus non-modified counterparts; for Reactivity in the LIA system: 75 sera from patients fulfilling the ARA criteria for RA, 13 synthetic peptides tested; for Immunoreaction towards peptide, comparison between peptides: in all serum groups; for Reactivity of sera on synthetic peptides: sera IG35038/ 35041
From the text: Human sera were obtained from the Department of Rheumatology of the University Hospital in Ghent (Belgium). In total, 265 sera were included, of which 75 fulfilled the ARA criteria for RA (Arnett et al., Arthritis Rheum.,31: 315-324, 1987), 155 sera scored positive in the APF fluorescence test (De Keyser et al., in press), 98 reacted with natural filaggrin on Western blot, 80 were APF negative and 16 were derived from healthy controls.
Streptavidin-complexed peptides were applied directly on a nylon membrane with a plastic backing. Blocked strips were incubated overnight with human sera diluted 1/100 in 1 ml PBS, 0.5% caseine, 0.1% Triton X705, 10 mM MgCl2.6H2O. After washing with PBS, 0.05% Tween20, goat anti-human IgG-AP conjugated (Promega) diluted in PBS, 0.1% caseine, 0.2% Triton X705 was added for 1h30. Strips were developed in 100 mM NaCl, 100 mM Tris-HCl, pH 9.8, 50 mM MgCl2.6H2O substrate buffer containing the chromogenic substrate NBT/ BCIP. Reaction was stopped after 30 min by addition of 0.2 N H2SO4.

anti-filaggrin binding = test: Inhibition ELISA on plates coated with human natural filaggrin, sera preincubated with competitor; settings: peptide as competitor at 100 µg/ml; 4 APF positive sera
Procedure: Electro-eluted human natural filaggrin was coated in Maxisorp polystyrene plates at a concentration of 1 or 4 µg/ml in 50 mM carbonate buffer, pH 9.6 overnight at 4°C. Sera were diluted 1/50 in PBS, and preincubated with either the appropriate peptides at 100 µg/ml, with isolated natural filaggrin at 1 or 10 µg/ml (positive control) or with PBS (negative control) for 2 hours. The plates were blocked 1 hour with PBS, 0.1% caseïne at 37°C and subsequently incubated with the sera. During 2 hours at 37°C. Plates were washed 5 times with PBS, 0.05% Tween 20 and incubated with anti-human IgG-HRP in PBS, 0.1 % caseïne, 0.1 mM K3Fe(CN)6. Colour development was performed using tetramethylbenzidine diluted 1/100 into 0.1 M Na2HPO4, 0.1 M citric acid, 0.006% H2O2, pH 4.3. Reaction was stopped by addition of 2N H2SO4 and OD values were measured at 450 nm using a Bio-tek ELISA reader. The percentage of inhibition was caculated as folows: [formula]

[2] = serum group APF neg., number of sera 80
[3] = serum group APF pos., number of sera 155
[4] = serum group Fg blot pos., number of sera 98
[5] = serum group Healthy, number of sera 16
[6] = serum group RA sera, number of sera 75

| Sequence | LIA signals [1] | Reactivity in the LIA system [1] | Immunoreaction towards peptide, comparison between peptides [1] | Reactivity of sera on synthetic peptides [1] | Immunoreactivity of human sera with synthetic peptide: number of reactive sera [1, 2] | Immunoreactivity of human sera with synthetic peptide: percentage of reactive sera [1, 2] [%] | Immunoreactivity of human sera with synthetic peptide: number of reactive sera [1, 3] | Immunoreactivity of human sera with synthetic peptide: percentage of reactive sera [1, 3] [%] | Immunoreactivity of human sera with synthetic peptide: number of reactive sera [1, 4] | Immunoreactivity of human sera with synthetic peptide: percentage of reactive sera [1, 4] [%] | Immunoreactivity of human sera with synthetic peptide: number of reactive sera [1, 5] | Immunoreactivity of human sera with synthetic peptide: percentage of reactive sera [1, 5] [%] | Immunoreactivity of human sera with synthetic peptide: number of reactive sera [1, 6] | Immunoreactivity of human sera with synthetic peptide: percentage of reactive sera [1, 6] [%] | number of sera significantly inhibited (anti-filaggrin binding) |
| --- | --- | --- | --- | --- | --- | --- | --- | --- | --- | --- | --- | --- | --- | --- | --- |
| HSGIGHGQASSAVRDSGHRGYS [IGP1180] (also: Arg may be citrulline in one of each IGP pair, not given here) [reference compound] | disappeared completely |  |  |  |  |  |  |  |  |  |  |  |  |  |  |
| DSGHRGYSGSQASDNEGH [IGP1157] (also: Arg may be citrulline in one of each IGP pair, not given here) | positive | Reactivity was noted | very faint | negative | 2/61 | 3.3 | 4/128 | 3.1 | 4/94 | 4.2 | 0/10 | 0 | 3/72 | 4.2 |  |
| DSGHRGYSGSQASDNEGH [IGP1181] (also: Arg may be citrulline in one of each IGP pair, not given here) [reference compound] | disappeared completely |  |  |  |  |  |  |  |  |  |  |  |  |  |  |
| HSGIGHGQASSAVRDSGHRGYS [IGP1156] (not fully specified; also: Arg may be citrulline in one of each IGP pair, not given here) | positive | Reactivity was noted | best reactive | negative | 4 | 5.5 | 50 | 32.2 | 46 | 48.9 | 2 | 12.5 | 25 | 33.3 |  |
| GGQGSRHQQAR [IGP1249] |  | Reactivity was noted |  |  | 1/79 | 1.3 | 23/150 | 15.3 | 17/94 | 18.1 | 1 | 6.3 | 9/73 | 12.3 |  |
| HSTSQEGQDTIHGHRGS [IGP1158] (also: Arg may be citrulline in one of each IGP pair, not given here) | positive | Reactivity was noted | best reactive | negative | 5/79 | 6.3 | 42 | 27.1 | 41 | 43.6 | 1 | 6.3 | 24 | 32 | 1 |
| HSASQDGQDTIRGHPGSS [IGP1155] (also: Arg may be citrulline in one of each IGP pair, not given here) | positive | Reactivity was noted |  | negative | 4 | 5.5 | 35 | 22.6 | 35 | 37.2 | 1 | 6.3 | 17 | 22.7 | 2 out of 4 |
| HSTSQEGQDTIHGHRGS [IGP1182] (also: Arg may be citrulline in one of each IGP pair, not given here) [reference compound] | disappeared completely |  |  |  |  |  |  |  |  |  |  |  |  |  |  |
| HSASQDGQDTIRGHPGSS [IGP1179] (also: Arg may be citrulline in one of each IGP pair, not given here) [reference compound] | disappeared completely |  |  |  |  |  |  |  |  |  |  |  |  |  |  |
